The target of assay [1] is DNA dC->dU-editing enzyme APOBEC-3A (Homo sapiens, UniProt P31941). Nature of the assay: Dose Response confirmation of small molecule APOBEC3A DNA Deaminase Inhibitors via a fluorescence-based single-stranded DNA deaminase assay. [Related pubchem assays (depositor defined):AID493011, AID493024]. It counts as functional.
For assay [2], the target named is DNA dC->dU-editing enzyme APOBEC-3G (Homo sapiens, UniProt Q9HC16). The assay is classed as functional.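 Note: Dose-response counterscreen measuring inhibition of APOBEC3G DNA deaminase activity, run while confirming APOBEC3A inhibitors.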
Assay [3] has as its target Peroxisome proliferator-activated receptor gamma/Nuclear receptor coactivator 1 (Homo sapiens, UniProt P37231). Nature of the assay: TR-FRET dose response biochemical High Throughput Screening assay for agonists of the steroid receptor coactivator 1 (SRC-1) recruitment by the peroxisome proliferator-activated receptor gamma (PPAR gamma): non-selective agonists. [Related pubchem assays (depositor defined):AID1300, AID1808, AID504735, AID631]. The assay is classed as protein assay. In general terms: Time-resolved FRET reads energy transfer from a long-lived donor to a nearby acceptor.

Assay [4] deals with Peroxisome proliferator-activated receptor gamma/Nuclear receptor coactivator 2 (Homo sapiens, UniProt P37231). Nature of the assay: TR-FRET dose response biochemical High Throughput Screening assay for agonists of the steroid receptor coactivator 2 (SRC-2) recruitment by the peroxisome proliferator-activated receptor gamma (PPAR gamma): non-selective agonists. [Related pubchem assays: 1297, 1032 ]. It counts as functional.

Assay [5] deals with T1, Runt-related transcription factor 1/Core-binding factor subunit beta (Homo sapiens, UniProt Q01196+Q13951). Put plainly: inhibitors of RUNX1 Runt–CBFb-SMMHC binding, biochemical, TR-FRET (AID 1438). The assay is classed as protein assay.
Assay [6] addresses T1, Runt-related transcription factor 1/Core-binding factor subunit beta. Put plainly: inhibitors of RUNX1 Runt–CBFb-SMMHC binding, primary screen, biochemical, FRET, Cerulean-Runt, Venus-CBFb-SMMHC, uHTS (AID 1434).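 Note: partner is the CBFb-SMMHC leukemia fusion protein rather than wild-type CBFb.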 The assay is classed as protein assay.
Assay [7] concerns the target Peroxisome proliferator-activated receptor gamma/Nuclear receptor coactivator 3 (Homo sapiens, UniProt P37231). Put plainly: TR-FRET dose response biochemical High Throughput Screening assay for agonists of the steroid receptor coactivator 3 (SRC-3) recruitment by the peroxisome proliferator-activated receptor gamma (PPAR gamma): non-selective agonists. [Related pubchem assays: 1301 (Confirmation screen.), 1048 (Primary screen.)]. It counts as functional.

Assay [8] in a line: THP-1 cell cytotoxicity, dose response, cytotoxicity control for non-replicating M. tuberculosis project (AID 489025). It counts as functional.
Assay [9] is described as follows: microbe, parasite or virus in culture. It counts as functional. The note with it: Mycobacterium tuberculosis.
Another assay in a line: cells. The assay is classed as functional.
A short description of assay [10]: Vero E6 cell cytotoxicity, dose response, cytotoxicity control for non-replicating M. tuberculosis project, secondary assay (AID 492998). It counts as functional, VeroE6. The note with it: Vero C1008.
Assay [11] concerns the target T2, Microphthalmia-associated transcription factor (Homo sapiens, UniProt O75030).
T2 sequence (O75030 whole entry): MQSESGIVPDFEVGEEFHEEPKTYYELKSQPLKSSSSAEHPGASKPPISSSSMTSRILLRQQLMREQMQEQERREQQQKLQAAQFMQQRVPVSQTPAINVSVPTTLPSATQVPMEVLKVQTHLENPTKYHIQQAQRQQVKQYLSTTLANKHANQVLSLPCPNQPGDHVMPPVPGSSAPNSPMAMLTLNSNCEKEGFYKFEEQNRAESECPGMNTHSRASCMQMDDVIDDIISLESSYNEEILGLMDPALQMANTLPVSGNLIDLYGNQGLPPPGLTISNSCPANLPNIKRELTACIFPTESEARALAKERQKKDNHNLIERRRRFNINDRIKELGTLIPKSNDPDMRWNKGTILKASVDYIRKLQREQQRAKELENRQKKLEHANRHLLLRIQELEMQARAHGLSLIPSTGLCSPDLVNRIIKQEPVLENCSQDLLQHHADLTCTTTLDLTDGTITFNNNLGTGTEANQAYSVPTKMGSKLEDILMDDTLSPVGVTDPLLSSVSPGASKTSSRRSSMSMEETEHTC
Nature of the assay: TRPM1 promoter luciferase signal decrease, dose response, MITF inhibitor project, cell-based, SK-MEL-5, cherry-picked, set 3 (AID 493073).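 Note: SK-MEL-5 melanoma cells with luciferase driven by the MITF target TRPM1 promoter.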 It counts as functional.

In a further assay the target is T3, Protein RecA (Mycobacterium tuberculosis, UniProt P9WHJ3).
T3 sequence (P9WHJ3 whole entry): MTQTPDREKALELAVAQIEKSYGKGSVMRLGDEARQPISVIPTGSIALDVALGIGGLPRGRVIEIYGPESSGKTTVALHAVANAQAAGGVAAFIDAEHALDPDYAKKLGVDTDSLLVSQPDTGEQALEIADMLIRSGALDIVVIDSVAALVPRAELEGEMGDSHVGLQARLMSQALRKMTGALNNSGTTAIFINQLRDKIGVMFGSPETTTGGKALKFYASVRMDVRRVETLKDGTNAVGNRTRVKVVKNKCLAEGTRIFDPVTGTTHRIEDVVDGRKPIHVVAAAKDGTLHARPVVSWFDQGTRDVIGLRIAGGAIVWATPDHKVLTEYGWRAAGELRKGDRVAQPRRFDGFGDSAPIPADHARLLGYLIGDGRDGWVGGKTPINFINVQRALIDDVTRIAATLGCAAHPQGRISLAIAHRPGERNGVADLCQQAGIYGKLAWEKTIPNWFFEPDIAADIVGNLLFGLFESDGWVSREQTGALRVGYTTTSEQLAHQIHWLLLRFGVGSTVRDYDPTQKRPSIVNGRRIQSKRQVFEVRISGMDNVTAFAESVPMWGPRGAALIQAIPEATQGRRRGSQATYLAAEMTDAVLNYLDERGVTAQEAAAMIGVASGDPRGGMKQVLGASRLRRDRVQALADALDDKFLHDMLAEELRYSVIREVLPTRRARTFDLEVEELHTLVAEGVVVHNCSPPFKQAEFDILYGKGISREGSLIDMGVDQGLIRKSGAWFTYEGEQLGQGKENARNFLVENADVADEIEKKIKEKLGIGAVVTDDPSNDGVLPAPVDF
Put plainly: Fluorescence Cell-Free Homogeneous Dose Retest to Identify Inhibitors of RecA-Intein Splicing Activity. [Related pubchem assays (depositor defined):AID2097, AID2223, AID489010, AID492950]. The assay is classed as functional.

Assay [12] concerns the target Nucleotide-binding oligomerization domain-containing protein 2 (Homo sapiens, UniProt Q9HC29). Put plainly: NOD2 signaling inhibitors, cell-based, luminescence, uHTS, HEK293 (AID 1566). It counts as functional.
Assay [13] deals with HEK293. Put plainly: NOD2 signaling inhibitors in MDP-stimulated cells, cell-based, uHTS, luminescence (AID 2001). It counts as functional. The note with it: Homo sapiens.
In assay [14] the target is T4, Replicative DNA helicase DnaB (Mycobacterium tuberculosis, UniProt P9WMR3).
T4 sequence (P9WMR3 whole entry): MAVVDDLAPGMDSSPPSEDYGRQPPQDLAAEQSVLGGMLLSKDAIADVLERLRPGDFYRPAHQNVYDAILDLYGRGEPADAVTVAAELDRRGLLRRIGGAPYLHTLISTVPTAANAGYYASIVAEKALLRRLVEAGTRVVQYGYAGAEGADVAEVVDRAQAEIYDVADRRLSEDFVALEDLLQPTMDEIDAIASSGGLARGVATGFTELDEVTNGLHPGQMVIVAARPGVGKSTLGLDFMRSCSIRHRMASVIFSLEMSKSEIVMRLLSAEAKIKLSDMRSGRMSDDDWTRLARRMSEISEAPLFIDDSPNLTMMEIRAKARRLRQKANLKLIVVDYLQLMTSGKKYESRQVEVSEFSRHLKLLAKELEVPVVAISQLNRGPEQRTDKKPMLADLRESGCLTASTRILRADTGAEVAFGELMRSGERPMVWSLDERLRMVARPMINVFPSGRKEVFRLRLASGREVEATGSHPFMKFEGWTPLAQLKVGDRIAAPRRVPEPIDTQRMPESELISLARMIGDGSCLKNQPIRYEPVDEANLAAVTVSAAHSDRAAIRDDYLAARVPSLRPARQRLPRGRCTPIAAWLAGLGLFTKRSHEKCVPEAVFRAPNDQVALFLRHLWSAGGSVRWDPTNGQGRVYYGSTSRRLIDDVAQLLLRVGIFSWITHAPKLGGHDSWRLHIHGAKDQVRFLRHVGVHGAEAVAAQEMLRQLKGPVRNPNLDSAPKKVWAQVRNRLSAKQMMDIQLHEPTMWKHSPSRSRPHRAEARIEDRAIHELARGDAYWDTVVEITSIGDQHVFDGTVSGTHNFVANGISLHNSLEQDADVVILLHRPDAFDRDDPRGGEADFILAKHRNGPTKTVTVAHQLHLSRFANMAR
Put plainly: DnaB intein splicing inhibitors, dose response, biochemical, cell-free fluorescence (AID 449749). The assay is classed as functional.

The subject of assay [15] is HEK293. Nature of the assay: cells. The assay is classed as functional, cell-based. Conditions: Homo sapiens.
The subject of assay [16] is HEK293. Put plainly: cells. It counts as functional, cell-based. Conditions: Homo sapiens. This is another data set of the same source.
The test system of assay [17] is HEK293. Put plainly: NOD1 signaling inhibitors, primary screen, cell-based, luminescence, uHTS (AID 1578). The assay is classed as functional. Conditions: Homo sapiens.
Assay [18] concerns HEK293. Nature of the assay: cells. It counts as functional, cell-based. Conditions: Homo sapiens. This is another data set of the same source.
In assay [19] the target is T5, Mannose-6-phosphate isomerase (Homo sapiens, UniProt P34949).
T5 sequence (P34949 whole entry): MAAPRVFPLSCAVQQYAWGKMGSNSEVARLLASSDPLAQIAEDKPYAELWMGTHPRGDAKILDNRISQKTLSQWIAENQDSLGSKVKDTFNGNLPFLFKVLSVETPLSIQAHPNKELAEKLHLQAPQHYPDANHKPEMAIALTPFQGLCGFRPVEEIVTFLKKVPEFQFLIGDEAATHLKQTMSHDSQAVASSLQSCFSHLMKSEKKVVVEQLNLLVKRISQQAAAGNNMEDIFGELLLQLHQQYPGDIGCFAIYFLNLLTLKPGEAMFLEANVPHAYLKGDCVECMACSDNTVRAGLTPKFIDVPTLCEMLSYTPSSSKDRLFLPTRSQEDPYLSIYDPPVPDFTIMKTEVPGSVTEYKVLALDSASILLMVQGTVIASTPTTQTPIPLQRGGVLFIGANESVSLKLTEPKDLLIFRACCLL
Nature of the assay: human PMI inhibitors, high substrate, primary screen, biochemical, fluorescence intensity, high mannose 6-phosphate (AID 1220).

Assay [20] deals with T5, Mannose-6-phosphate isomerase. Nature of the assay: inhibitors of human PMI, primary screen, biochemical, fluorescence intensity, coupled assay (AID 1209).
Assay [21] has as its target Glucose-6-phosphate 1-dehydrogenase (Homo sapiens, UniProt P11413). Nature of the assay: human G6PD enzyme inhibitors, dose response, selectivity assay for P. falciparum G6PD inhibitor project, biochemical, fluorescence (AID 504792). The assay is classed as functional.
In another assay the target is Nonstructural protein 1 (Influenza A virus, UniProt Q194T2). The assay is classed as functional, Influenza A virus (A/California/07/2009(H1N1)).

Calls of active or inactive are those of the source.

Chain of DNA dC->dU-editing enzyme APOBEC-3G (Q9HC16 whole entry): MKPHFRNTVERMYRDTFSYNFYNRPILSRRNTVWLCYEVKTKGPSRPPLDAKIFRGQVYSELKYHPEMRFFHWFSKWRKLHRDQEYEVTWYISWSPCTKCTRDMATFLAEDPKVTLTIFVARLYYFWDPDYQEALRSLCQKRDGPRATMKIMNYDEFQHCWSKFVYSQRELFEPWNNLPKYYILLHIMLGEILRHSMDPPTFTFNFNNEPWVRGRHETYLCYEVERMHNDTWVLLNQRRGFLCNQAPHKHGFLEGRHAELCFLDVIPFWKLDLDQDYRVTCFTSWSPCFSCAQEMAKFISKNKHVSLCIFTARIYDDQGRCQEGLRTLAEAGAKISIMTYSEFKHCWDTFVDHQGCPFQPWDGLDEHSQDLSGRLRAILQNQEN
T1 sequence (Q01196 whole entry, the tested form may be a part): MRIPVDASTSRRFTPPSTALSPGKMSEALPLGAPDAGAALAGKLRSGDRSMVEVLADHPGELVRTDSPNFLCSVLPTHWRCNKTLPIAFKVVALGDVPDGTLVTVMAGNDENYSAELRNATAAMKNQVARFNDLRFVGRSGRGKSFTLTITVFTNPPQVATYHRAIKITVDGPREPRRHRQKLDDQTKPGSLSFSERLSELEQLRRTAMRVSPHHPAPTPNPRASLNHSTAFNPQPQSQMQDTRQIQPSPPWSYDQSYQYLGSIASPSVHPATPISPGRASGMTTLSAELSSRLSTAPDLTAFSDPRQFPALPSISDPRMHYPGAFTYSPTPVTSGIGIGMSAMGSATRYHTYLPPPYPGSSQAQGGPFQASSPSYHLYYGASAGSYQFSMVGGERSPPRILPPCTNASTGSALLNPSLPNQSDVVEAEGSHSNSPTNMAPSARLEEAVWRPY
T1 sequence (Q13951 whole entry, the tested form may be a part): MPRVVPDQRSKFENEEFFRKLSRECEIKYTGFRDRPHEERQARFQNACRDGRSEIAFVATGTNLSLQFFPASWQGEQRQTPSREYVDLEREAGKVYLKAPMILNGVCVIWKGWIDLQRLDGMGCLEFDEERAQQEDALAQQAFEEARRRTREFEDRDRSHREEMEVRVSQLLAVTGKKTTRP
Chain of DNA dC->dU-editing enzyme APOBEC-3A (P31941 whole entry): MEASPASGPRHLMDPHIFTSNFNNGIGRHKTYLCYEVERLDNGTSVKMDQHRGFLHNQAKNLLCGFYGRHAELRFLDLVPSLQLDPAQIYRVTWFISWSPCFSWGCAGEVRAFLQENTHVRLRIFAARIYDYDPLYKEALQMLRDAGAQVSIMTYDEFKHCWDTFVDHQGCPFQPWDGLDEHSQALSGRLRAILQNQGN
Chain of Peroxisome proliferator-activated receptor gamma/Nuclear receptor coactivator 3 (P37231 whole entry): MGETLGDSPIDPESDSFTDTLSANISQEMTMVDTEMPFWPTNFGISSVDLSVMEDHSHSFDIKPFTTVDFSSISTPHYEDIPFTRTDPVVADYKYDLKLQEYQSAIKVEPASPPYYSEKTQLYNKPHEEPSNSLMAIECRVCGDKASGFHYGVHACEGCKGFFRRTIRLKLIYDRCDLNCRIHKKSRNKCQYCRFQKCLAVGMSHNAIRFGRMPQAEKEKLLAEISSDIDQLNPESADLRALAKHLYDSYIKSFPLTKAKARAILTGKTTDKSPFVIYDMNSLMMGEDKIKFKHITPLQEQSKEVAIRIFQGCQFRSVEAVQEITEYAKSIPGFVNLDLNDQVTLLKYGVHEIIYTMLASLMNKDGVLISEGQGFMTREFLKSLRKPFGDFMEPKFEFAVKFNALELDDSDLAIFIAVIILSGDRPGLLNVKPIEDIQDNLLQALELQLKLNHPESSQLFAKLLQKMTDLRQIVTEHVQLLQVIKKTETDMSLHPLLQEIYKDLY
Chain of Peroxisome proliferator-activated receptor gamma/Nuclear receptor coactivator 3 (Q9Y6Q9 whole entry, further chain): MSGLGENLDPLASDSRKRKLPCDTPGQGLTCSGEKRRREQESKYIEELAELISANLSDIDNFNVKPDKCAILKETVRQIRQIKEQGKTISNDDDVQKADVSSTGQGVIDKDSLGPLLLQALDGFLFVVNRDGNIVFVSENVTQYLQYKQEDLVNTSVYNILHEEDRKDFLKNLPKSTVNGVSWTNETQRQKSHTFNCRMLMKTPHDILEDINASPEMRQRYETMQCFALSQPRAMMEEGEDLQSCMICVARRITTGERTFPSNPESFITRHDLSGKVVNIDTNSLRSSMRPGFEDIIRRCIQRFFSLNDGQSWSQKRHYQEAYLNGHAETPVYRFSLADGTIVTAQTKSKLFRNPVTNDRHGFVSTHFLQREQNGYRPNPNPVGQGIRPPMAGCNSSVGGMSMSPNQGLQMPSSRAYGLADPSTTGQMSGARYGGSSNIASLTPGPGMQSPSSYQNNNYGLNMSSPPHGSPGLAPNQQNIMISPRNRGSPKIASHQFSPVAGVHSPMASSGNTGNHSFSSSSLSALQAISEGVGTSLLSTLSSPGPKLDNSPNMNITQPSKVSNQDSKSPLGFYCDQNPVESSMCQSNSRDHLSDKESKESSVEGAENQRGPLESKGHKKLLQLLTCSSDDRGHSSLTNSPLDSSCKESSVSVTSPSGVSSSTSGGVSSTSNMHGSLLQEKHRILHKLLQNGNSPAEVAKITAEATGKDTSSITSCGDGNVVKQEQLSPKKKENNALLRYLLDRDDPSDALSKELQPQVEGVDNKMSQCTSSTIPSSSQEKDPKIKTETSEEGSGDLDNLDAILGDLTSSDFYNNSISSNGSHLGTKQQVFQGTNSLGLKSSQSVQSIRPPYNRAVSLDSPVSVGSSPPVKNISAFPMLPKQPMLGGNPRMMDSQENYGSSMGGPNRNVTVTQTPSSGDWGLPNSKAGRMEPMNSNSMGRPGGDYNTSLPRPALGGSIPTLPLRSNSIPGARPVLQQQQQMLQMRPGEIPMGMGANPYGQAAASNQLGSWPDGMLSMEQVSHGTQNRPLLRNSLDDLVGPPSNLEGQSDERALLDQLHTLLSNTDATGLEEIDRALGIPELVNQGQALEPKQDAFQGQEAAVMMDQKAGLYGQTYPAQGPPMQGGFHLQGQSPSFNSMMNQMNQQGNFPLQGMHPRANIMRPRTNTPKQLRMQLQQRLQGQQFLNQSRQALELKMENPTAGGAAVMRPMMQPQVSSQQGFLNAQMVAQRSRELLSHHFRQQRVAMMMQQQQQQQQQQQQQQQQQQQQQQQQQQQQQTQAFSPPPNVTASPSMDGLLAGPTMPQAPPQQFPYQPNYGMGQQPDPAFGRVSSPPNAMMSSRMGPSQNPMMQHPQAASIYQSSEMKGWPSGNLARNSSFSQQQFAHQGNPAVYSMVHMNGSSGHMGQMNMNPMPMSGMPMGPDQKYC
Chain of Nonstructural protein 1 (Q194T2 whole entry): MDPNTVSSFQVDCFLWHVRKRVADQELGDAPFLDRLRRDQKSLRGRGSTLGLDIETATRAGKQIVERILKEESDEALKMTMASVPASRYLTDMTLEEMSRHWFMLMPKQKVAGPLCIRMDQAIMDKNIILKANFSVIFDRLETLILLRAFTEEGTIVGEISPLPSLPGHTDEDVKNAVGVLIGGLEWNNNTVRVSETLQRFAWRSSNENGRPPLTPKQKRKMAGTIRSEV
Chain of Glucose-6-phosphate 1-dehydrogenase (P11413 whole entry): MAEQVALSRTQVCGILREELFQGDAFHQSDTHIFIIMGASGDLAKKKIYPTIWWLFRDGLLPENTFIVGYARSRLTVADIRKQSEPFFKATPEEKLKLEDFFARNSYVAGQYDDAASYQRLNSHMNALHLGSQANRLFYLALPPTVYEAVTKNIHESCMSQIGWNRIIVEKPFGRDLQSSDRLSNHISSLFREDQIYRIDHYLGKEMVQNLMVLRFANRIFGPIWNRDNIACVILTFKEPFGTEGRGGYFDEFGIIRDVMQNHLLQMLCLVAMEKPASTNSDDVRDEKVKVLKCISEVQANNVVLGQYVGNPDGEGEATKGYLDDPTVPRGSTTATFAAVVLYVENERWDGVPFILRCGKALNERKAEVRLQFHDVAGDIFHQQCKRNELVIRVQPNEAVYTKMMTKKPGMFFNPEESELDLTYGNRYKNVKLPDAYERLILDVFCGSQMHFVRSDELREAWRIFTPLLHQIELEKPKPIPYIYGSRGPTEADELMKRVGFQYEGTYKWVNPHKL
Chain of Nucleotide-binding oligomerization domain-containing protein 2 (Q9HC29 whole entry, the tested form may be a part): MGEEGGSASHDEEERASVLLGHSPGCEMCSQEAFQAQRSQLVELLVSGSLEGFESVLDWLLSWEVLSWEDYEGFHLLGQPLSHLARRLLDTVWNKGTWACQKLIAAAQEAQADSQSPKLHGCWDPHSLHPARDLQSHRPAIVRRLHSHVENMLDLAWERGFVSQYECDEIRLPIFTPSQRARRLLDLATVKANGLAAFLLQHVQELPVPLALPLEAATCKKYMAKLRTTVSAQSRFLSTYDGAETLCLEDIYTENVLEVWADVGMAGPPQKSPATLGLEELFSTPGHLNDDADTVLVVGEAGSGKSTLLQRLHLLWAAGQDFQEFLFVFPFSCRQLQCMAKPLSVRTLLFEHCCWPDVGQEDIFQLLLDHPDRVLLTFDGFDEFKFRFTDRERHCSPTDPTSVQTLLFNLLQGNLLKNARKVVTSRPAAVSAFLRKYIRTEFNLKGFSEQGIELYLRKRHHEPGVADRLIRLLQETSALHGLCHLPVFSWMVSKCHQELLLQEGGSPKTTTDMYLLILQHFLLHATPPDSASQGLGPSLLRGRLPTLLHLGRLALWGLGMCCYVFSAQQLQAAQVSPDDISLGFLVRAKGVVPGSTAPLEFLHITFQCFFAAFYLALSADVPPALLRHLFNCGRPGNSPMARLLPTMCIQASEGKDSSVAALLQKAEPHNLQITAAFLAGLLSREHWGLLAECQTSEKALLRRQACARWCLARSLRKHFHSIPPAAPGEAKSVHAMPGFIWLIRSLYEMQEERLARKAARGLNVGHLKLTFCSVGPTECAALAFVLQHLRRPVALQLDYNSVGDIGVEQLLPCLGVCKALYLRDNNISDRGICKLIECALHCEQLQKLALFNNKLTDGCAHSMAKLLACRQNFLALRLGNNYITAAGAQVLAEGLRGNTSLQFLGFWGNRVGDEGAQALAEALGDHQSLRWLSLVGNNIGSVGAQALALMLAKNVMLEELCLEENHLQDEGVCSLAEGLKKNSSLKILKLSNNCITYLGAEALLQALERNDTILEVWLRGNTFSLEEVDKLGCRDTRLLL

Regarding `Cn1c(-[n+]2c(-c3ccccc3)cc(-c3ccccc3)cc2-c2ccccc2)nc2cc([N+](=O)[O-])ccc21`, the IC50 (in general, the midpoint of a concentration-inhibition curve) is 19.1 µM (active) in assay [1] and 22.7 µM (active) in assay [2].

`Oc1ccc(/N=C/c2ccc(-c3cccs3)s2)cc1`: the half-maximal effective concentration (EC50) (usually the concentration that produces a half-maximal response) was 8.81 µM (active) in assay [3], 12 µM (not active) in assay [4] and 73 µM (not active) in [7]. In addition, the figures for the IC50 in assay [5] and in [6] were > 100 µM (inactive) and 4.2 µM (active), respectively.

In the case of `FC(F)(Cl)c1nnc2ccc(Cl)nn12`, the CC50 was 10.8 µM (active) in assay [8], 16.5 µM (active) in assay [9] and 16.7 µM (active) in [10]. Further, the IC50 in the assay “cells” was 0.75 µM (active).

Take `Cc1cccc[n+]1C1C(c2ccccc2)C(C#N)=C([C-](C#N)C#N)NC1(O)C1CC1` (centres undefined): the EC50 in assay [3] was > 79.4 µM (inactive); in [4] it was > 79.4 µM (not active); in assay [7] it was > 79.4 µM (not active).

Regarding `O=C(CCl)N1N=C(c2ccco2)CC1c1cccs1` (centres undefined), the AC50 – broadly, the concentration at which the activity in the assay is half-maximal – in assay [11] was 7.84 µM (active); in assay [14], 92.5 µM (active). Moreover, the 50% effective concentration (EC50) on Protein RecA was 2.16 µM (active); in [12], 16.7 µM (active); with HEK293 [17], 7.24 µM (active). In addition, the IC50 with HEK293 [13] was 4.77 µM (active); in the assay on HEK293 [15], > 20 µM (inactive); with HEK293 [16] it was 5.32 µM (active); with HEK293 [18], > 20 µM (inactive).

Turning to `CCCOc1ccc(C2C(C(=O)OC)=CN(CCOC)C=C2C(=O)OC)cc1`, the IC50 in [5] is > 100 µM (inactive); in assay [6], 2.22 µM (active).

For `CCN1C(NCCCOC(C)C)=N[C@@H](CCc2ccccc2)[C@H](C(=O)NCCCOC(C)C)[C@H]1C`, the figures for the 50% inhibitory concentration (IC50) in assay [1] and in assay [2] were 2.91 µM (active) and 3.6 µM (active), respectively.

For the compound `C/[N+]([O-])=C\c1ccc2cccc(O)c2n1`, the IC50 was 11.8 µM (active) in assay [19]; 16.4 µM (active) in [20]; > 80 µM (inactive) in assay [21]; 1.68 µM (active) at Nonstructural protein 1; 11.6 µM (active) in the assay “cells”. Further, the CC50 in assay [8] is 35 µM (active); in assay [10], 15.6 µM (active).

As to `Cc1cc2nc(-c3ccc(SCc4ccccc4C#N)nc3)[nH]c2cc1C`, the EC50 in assay [3] is > 79.4 µM (inactive); in assay [4], > 79.4 µM (not active); in [7], > 79.4 µM (not active).

Regarding `COc1ccc(N(CC(=O)NCCSc2ccc(C)cc2)S(=O)(=O)c2ccccc2)c(OC)c1`, the IC50 is 10.9 µM (active) in assay [1] and 9.82 µM (active) in assay [2].
